Key:
corn = experiment: Test C pre-/postemergence herbicide test; type: in vivo, Zea mays; details: for Corn plant response rating: 500 g ai/ha
Method in brief: (§1)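 Pre/post spray; non-phytotoxic solvent + surfactant. Post-timing 1–4 leaves, 2–18 cm. Read-out: visual % control vs untreated, day 12–14, greenhouse.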

Surinam grass = experiment: Test C pre-/postemergence herbicide test; type: in vivo, Urochloa decumbens; details: for Surinam Grass plant response rating: 500 g ai/ha
Method in brief: as §1

redroot pigweed = experiment: Test A pre-/postemergence herbicide test; type: in vivo, Amaranthus retroflexus
Method in brief: (§2)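 Greenhouse injury scoring (0–100, complete control = 100) at approximately ten days follows simultaneous pre- and postemergence application. Soil received a directed spray after seeding; seedlings of 2–10 cm at the one- to two-leaf stage were sprayed to runoff.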

pigweed = experiment: Test C pre-/postemergence herbicide test; type: in vivo, Amaranthus retroflexus; details: for Pigweed plant response rating: 500 g ai/ha
Method in brief: as §1

cocklebur = experiment: Test C pre-/postemergence herbicide test; type: in vivo, Xanthium strumarium; details: for Cocklebur plant response rating: 500 g ai/ha
Method in brief: as §1

johnsongrass = experiment: Test C pre-/postemergence herbicide test; type: in vivo, Sorghum halepense; details: for Johnsongrass plant response rating: 500 g ai/ha
Method in brief: as §1

morningglory [1] = experiment: Test C pre-/postemergence herbicide test; type: in vivo, Ipomoea coccinea; design: key to Plant response rating, Morningglory: 0 = no effect, 100 = complete control; details: for Morningglory plant response rating: 500 g ai/ha
Method in brief: as §1

velvetleaf = experiment: Test C pre-/postemergence herbicide test; type: in vivo, Abutilon theophrasti; details: for Velvetleaf plant response rating: 500 g ai/ha
Method in brief: as §1

eastern black nightshade = experiment: Test C pre-/postemergence herbicide test; type: in vivo, Solanum ptycanthum; details: for Plant response rating (0 = no effect, 100 = complete control), Nightshade: 62 g ai/ha; for Nightshade plant response rating: Preemergence, 500 g ai/ha, scale 0 to 100, 0 no effect, 100 complete control
Method in brief: as §1

morningglory [2] = experiment: Test A pre-/postemergence herbicide test; type: in vivo, Ipomoea spp.
Method in brief: as §2

chickweed = experiment: Test C postemergence herbicide test; type: in vivo, Stellaria media; details: for Chickweed plant response rating: 500 g ai/ha
Method in brief: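 Postemergence sprays were applied to plants 2 to 18 cm tall (1- to 4-leaf stage); in the flooded paddy test, barnyardgrass was grown to the 2-leaf stage. After 12 to 14 days in a greenhouse, injury was visually rated against untreated controls on a 0–100 scale (100 = complete control).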

[3] = 125 g ai/ha, scale 0 (no effect) to 100 (complete control), visual, 12 to 14 days, preemergence
[4] = 250 g ai/ha, scale 0 to 100 (0 no effect, 100 complete control), visual, 12 to 14 days, preemergence
[5] = Preemergence, scale 0 to 100, 0 no effect, 100 complete control
[6] = postemergence, 125 g ai/ha, scale 0 to 100
[7] = postemergence, 62 g ai/ha, scale 0 to 100
[8] = Postemergence, 250 g ai/ha, scale 0 to 100, 0 no effect, 100 complete control
[9] = Postemergence, 500 g ai/ha, 0 to 100 scale, 0 no effect, 100 complete control
[10] = Postemergence, 2000 g ai/ha, 0 to 100 scale, 0 no effect, 100 complete control
[11] = Preemergence, 500 g ai/ha, visual rating, 0 to 100 scale (0 no effect, 100 complete control)
[12] = Preemergence, 2000 g ai/ha, visual rating, 0 to 100 scale (0 no effect, 100 complete control)

SMILES: CC(=NO)c1cccc(NC(=O)c2cc(C(C)(C)C)nn2CCF)c1 [Compound 115]
- Plant response rating (0 = no effect, 100 = complete control), Corn (corn; 62 g ai/ha, preemergence): 10
- Plant response rating, Corn (corn; [3]): 10
- Plant response rating, Corn (corn; [4]): 20
- Corn plant response rating (corn; Postemergence, scale 0 to 100): 40
- Corn plant response rating (corn; [5]): 30
- Plant response rating, Corn (corn; [6]): 40
- Plant response rating, Corn (corn; [7]): 40
- Plant response rating (0 = no effect, 100 = complete control), Surinam Grass (Surinam grass; 62 g ai/ha, preemergence): 20
- Plant response rating, Surinam Grass (Surinam grass; [3]): 40
- Surinam Grass plant response rating (Surinam grass; Postemergence, scale 0 to 100): 60
- Plant response rating, Surinam Grass (Surinam grass; [8]): 60
- Surinam Grass plant response rating (Surinam grass; [5]): 90
- Plant response rating, Surinam Grass (Surinam grass; [6]): 40
- Plant response rating, Surinam Grass (Surinam grass; [7]): 30
- Pigweed plant response rating (redroot pigweed; [9]): 95
- Plant response rating, Pigweed (redroot pigweed; [10]): 100
- Pigweed plant response rating (redroot pigweed; [11]): 95
- Pigweed plant response rating (redroot pigweed; [12]): 100
- Plant response rating (0 = no effect, 100 = complete control), Pigweed (pigweed; 62 g ai/ha, preemergence): 100
- Plant response rating, Pigweed (pigweed; [3]): 100
- Pigweed plant response rating (pigweed; Postemergence, scale 0 to 100): 100
- Plant response rating, Pigweed (pigweed; [8]): 100
- Pigweed plant response rating (pigweed; [5]): 100
- Plant response rating, Pigweed (pigweed; [6]): 100
- Plant response rating, Pigweed (pigweed; [7]): 100
- Plant response rating (0 = no effect, 100 = complete control), Cocklebur (cocklebur; 62 g ai/ha, preemergence): 20
- Plant response rating, Cocklebur (cocklebur; [3]): 40
- Plant response rating, Cocklebur (cocklebur; [4]): 50
- Cocklebur plant response rating (cocklebur; Postemergence, scale 0 to 100): 100
- Plant response rating, Cocklebur (cocklebur; [8]): 100
- Cocklebur plant response rating (cocklebur; [5]): 100
- Plant response rating, Cocklebur (cocklebur; [6]): 90
- Plant response rating, Cocklebur (cocklebur; [7]): 90
- Plant response rating (0 = no effect, 100 = complete control), Johnsongrass (johnsongrass; 62 g ai/ha, preemergence): 70
- Plant response rating, Johnsongrass (johnsongrass; [3]): 100
- Johnsongrass plant response rating (johnsongrass; Postemergence, scale 0 to 100): 100
- Plant response rating, Johnsongrass (johnsongrass; [8]): 80
- Johnsongrass plant response rating (johnsongrass; [5]): 100
- Plant response rating, Johnsongrass (johnsongrass; [6]): 50
- Plant response rating, Johnsongrass (johnsongrass; [7]): 30
- Plant response rating, Morningglory (morningglory [1]; [3]): 30
- Morningglory plant response rating (morningglory [1]; Postemergence, scale 0 to 100): 100
- Morningglory plant response rating (morningglory [1]; [5]): 80
- Plant response rating, Morningglory (morningglory [1]; [6]): 80
- Plant response rating, Morningglory (morningglory [1]; [7]): 50
- Plant response rating, Velvetleaf (velvetleaf; [3]): 100
- Velvetleaf plant response rating (velvetleaf; Postemergence, scale 0 to 100): 90
- Plant response rating, Velvetleaf (velvetleaf; [8]): 90
- Velvetleaf plant response rating (velvetleaf; [5]): 100
- Plant response rating, Velvetleaf (velvetleaf; [6]): 90
- Plant response rating, Velvetleaf (velvetleaf; [7]): 60
- Plant response rating (0 = no effect, 100 = complete control), Nightshade (eastern black nightshade; preemergence): 100
- Plant response rating, Nightshade (eastern black nightshade; [3]): 100
- Nightshade plant response rating (eastern black nightshade): 100
- Morningglory plant response rating (morningglory [2]; [9]): 35
- Plant response rating, Morningglory (morningglory [2]; [10]): 30
- Morningglory plant response rating (morningglory [2]; [11]): 70
- Morningglory plant response rating (morningglory [2]; [12]): 90
- Chickweed plant response rating (chickweed; Postemergence, scale 0 to 100): 100
- Plant response rating, Chickweed (chickweed; [8]): 100
- Plant response rating, Chickweed (chickweed; [6]): 100
- Plant response rating, Chickweed (chickweed; [7]): 100

SMILES: CCn1nc(C(C)(C)C)cc1C(=O)Nc1cccc(SC(F)(F)F)c1 [Compound 130]
- Plant response rating (0 = no effect, 100 = complete control), Corn (corn; 62 g ai/ha, preemergence): 0
- Plant response rating, Corn (corn; [3]): 5
- Plant response rating, Corn (corn; [4]): 5
- Corn plant response rating (corn; Postemergence, scale 0 to 100): 50
- Plant response rating, Corn (corn; [8]): 45
- Corn plant response rating (corn; [5]): 10
- Plant response rating, Corn (corn; [6]): 45
- Plant response rating (0 = no effect, 100 = complete control), Surinam Grass (Surinam grass; 62 g ai/ha, preemergence): 5
- Plant response rating, Surinam Grass (Surinam grass; [3]): 5
- Surinam Grass plant response rating (Surinam grass; Postemergence, scale 0 to 100): 60
- Plant response rating, Surinam Grass (Surinam grass; [8]): 30
- Surinam Grass plant response rating (Surinam grass; [5]): 60
- Plant response rating, Surinam Grass (Surinam grass; [6]): 10
- Pigweed plant response rating (redroot pigweed; [9]): 50
- Plant response rating, Pigweed (redroot pigweed; [10]): 65
- Pigweed plant response rating (redroot pigweed; [12]): 65
- Pigweed plant response rating (redroot pigweed; preemergence, 500 g ai/ha, visual injury, 0 to 100 scale (0 no effect, 100 complete control)): 35
- Plant response rating (0 = no effect, 100 = complete control), Pigweed (pigweed; 62 g ai/ha, preemergence): 80
- Plant response rating, Pigweed (pigweed; [3]): 90
- Pigweed plant response rating (pigweed; Postemergence, scale 0 to 100): 100
- Plant response rating, Pigweed (pigweed; [8]): 100
- Pigweed plant response rating (pigweed; [5]): 100
- Plant response rating, Pigweed (pigweed; [6]): 100
- Plant response rating (0 = no effect, 100 = complete control), Cocklebur (cocklebur; 62 g ai/ha, preemergence): 0
- Plant response rating, Cocklebur (cocklebur; [4]): 70
- Cocklebur plant response rating (cocklebur; Postemergence, scale 0 to 100): 100
- Plant response rating, Cocklebur (cocklebur; [8]): 90
- Cocklebur plant response rating (cocklebur; [5]): 100
- Plant response rating, Cocklebur (cocklebur; [6]): 30
- Johnsongrass plant response rating (johnsongrass; Postemergence, scale 0 to 100): 40
- Plant response rating, Johnsongrass (johnsongrass; [8]): 30
- Johnsongrass plant response rating (johnsongrass; [5]): 80
- Plant response rating, Johnsongrass (johnsongrass; [6]): 10
- Plant response rating (0 = no effect, 100 = complete control), Morningglory (morningglory [1]; 62 g ai/ha, preemergence): 0
- Plant response rating, Morningglory (morningglory [1]; [3]): 0
- Morningglory plant response rating (morningglory [1]; Postemergence, scale 0 to 100): 100
- Plant response rating, Morningglory (morningglory [1]; [8]): 80
- Morningglory plant response rating (morningglory [1]; [5]): 30
- Plant response rating, Morningglory (morningglory [1]; [6]): 40
- Plant response rating, Velvetleaf (velvetleaf; [3]): 10
- Velvetleaf plant response rating (velvetleaf; Postemergence, scale 0 to 100): 85
- Plant response rating, Velvetleaf (velvetleaf; [8]): 40
- Velvetleaf plant response rating (velvetleaf; [5]): 100
- Plant response rating, Velvetleaf (velvetleaf; [6]): 30
- Plant response rating (0 = no effect, 100 = complete control), Nightshade (eastern black nightshade; preemergence): 30
- Nightshade plant response rating (eastern black nightshade): 60
- Morningglory plant response rating (morningglory [2]; [9]): 20
- Plant response rating, Morningglory (morningglory [2]; [10]): 25
- Morningglory plant response rating (morningglory [2]; [11]): 10
- Morningglory plant response rating (morningglory [2]; [12]): 15
- Chickweed plant response rating (chickweed; Postemergence, scale 0 to 100): 100
- Plant response rating, Chickweed (chickweed; [8]): 100
- Plant response rating, Chickweed (chickweed; [6]): 100

Reference: patent publication US20060069132A1, “Azolecarboxamide herbicides” (priority 2004, published 2006)
